From PubChem BioAssay (NCI)
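Each compound was tested at five concentrations against cells in 96-well plates for 48 hours. GI50 is the concentration that inhibits growth by half. TGI marks complete inhibition of growth.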

Tests used:
Assay in all cases: NCI-60 cell line screen, 48 h
786-0 renal = test system: 786-0 renal
A498 renal = test system: A498 renal
A549 NSCLC = test system: A549 NSCLC
ACHN renal = test system: ACHN renal
BT-549 breast = test system: BT-549 breast
CAKI-1 renal = test system: CAKI-1 renal
COLO 205 colon = test system: COLO 205 colon
DU-145 prostate = test system: DU-145 prostate
EKVX NSCLC = test system: EKVX NSCLC
HCC-2998 colon = test system: HCC-2998 colon
HCT-15 colon = test system: HCT-15 colon
HOP-62 NSCLC = test system: HOP-62 NSCLC
HOP-92 NSCLC = test system: HOP-92 NSCLC
HS 578T breast = test system: HS 578T breast
HT29 colon = test system: HT29 colon
IGROV1 ovarian = test system: IGROV1 ovarian
KM12 colon = test system: KM12 colon
LOX IMVI melanoma = test system: LOX IMVI melanoma
MALME-3M melanoma = test system: MALME-3M melanoma
MCF7 breast = test system: MCF7 breast
MDA-MB-231 breast = test system: MDA-MB-231 breast
MDA-MB-435 = test system: MDA-MB-435
MOLT-4 leukemia = test system: MOLT-4 leukemia
NCI-H226 lung = test system: NCI-H226 lung
NCI-H23 lung = test system: NCI-H23 lung
NCI-H460 lung = test system: NCI-H460 lung
NCI-H522 lung = test system: NCI-H522 lung
NCI/ADR-RES ovarian = test system: NCI/ADR-RES ovarian
OVCAR-3 ovarian = test system: OVCAR-3 ovarian
OVCAR-4 ovarian = test system: OVCAR-4 ovarian
OVCAR-5 ovarian = test system: OVCAR-5 ovarian
OVCAR-8 ovarian = test system: OVCAR-8 ovarian
PC-3 prostate = test system: PC-3 prostate
RPMI-8226 leukemia = test system: RPMI-8226 leukemia
RXF 393 renal = test system: RXF 393 renal
SF-268 CNS = test system: SF-268 CNS
SF-295 CNS = test system: SF-295 CNS
SF-539 CNS = test system: SF-539 CNS
SK-MEL-2 melanoma = test system: SK-MEL-2 melanoma
SK-MEL-28 melanoma = test system: SK-MEL-28 melanoma
SK-MEL-5 melanoma = test system: SK-MEL-5 melanoma
SK-OV-3 ovarian = test system: SK-OV-3 ovarian
SN12C renal = test system: SN12C renal
SNB-19 CNS = test system: SNB-19 CNS
SNB-75 CNS = test system: SNB-75 CNS
SR leukemia = test system: SR leukemia
SW-620 colon = test system: SW-620 colon
T-47D breast = test system: T-47D breast
TK-10 renal = test system: TK-10 renal
U251 CNS = test system: U251 CNS
UACC-257 melanoma = test system: UACC-257 melanoma
UACC-62 melanoma = test system: UACC-62 melanoma
UO-31 renal = test system: UO-31 renal

`Cc1ccc(C(=O)Nc2ccc(CNCCN3CCNCC3)c(C(F)(F)F)c2)cc1C#Cc1cnc2cccnn12` was tested, and the GI50 (786-0 renal) was 2.17 µM, the TGI (786-0 renal) was 3.89 µM and the GI50 (A498 renal) was 1.8 µM. The TGI (A498 renal) was 3.36 µM, the GI50 (A549 NSCLC) was 1.92 µM and the TGI (A549 NSCLC) was 3.73 µM. For the same compound, the GI50 (ACHN renal) was 1.82 µM, the TGI (ACHN renal) was 3.27 µM and the GI50 (BT-549 breast) was 2.17 µM. It also gave a TGI (BT-549 breast) of 3.91 µM, a GI50 (CAKI-1 renal) of 1.79 µM and a TGI (CAKI-1 renal) of 3.37 µM. For the same compound, the GI50 (COLO 205 colon) was 1.93 µM, the TGI (COLO 205 colon) was 3.87 µM and the GI50 (DU-145 prostate) was 1.89 µM. It also gave a TGI (DU-145 prostate) of 3.39 µM, a GI50 (EKVX NSCLC) of 2.12 µM and a TGI (EKVX NSCLC) of 4.13 µM. It also gave a GI50 (HCC-2998 colon) of 1.97 µM, a TGI (HCC-2998 colon) of 3.62 µM and a GI50 (HCT-15 colon) of 1.87 µM. For the same compound, the TGI (HCT-15 colon) was 3.43 µM, the GI50 (HOP-62 NSCLC) was 1.86 µM and the TGI (HOP-62 NSCLC) was 3.63 µM. For the same compound, the GI50 (HOP-92 NSCLC) was 1.45 µM, the TGI (HOP-92 NSCLC) was 3.25 µM and the GI50 (HS 578T breast) was 2.07 µM. It also gave a TGI (HS 578T breast) of 5.25 µM, a GI50 (HT29 colon) of 1.39 µM and a TGI (HT29 colon) of 2.78 µM. For the same compound, the GI50 (IGROV1 ovarian) was 1.85 µM, the TGI (IGROV1 ovarian) was 3.49 µM and the GI50 (KM12 colon) was 1.78 µM. It also gave a TGI (KM12 colon) of 3.35 µM, a GI50 (LOX IMVI melanoma) of 1.73 µM and a TGI (LOX IMVI melanoma) of 3.18 µM. For the same compound, the GI50 (MALME-3M melanoma) was 1.71 µM, the TGI (MALME-3M melanoma) was 3.39 µM and the GI50 (MCF7 breast) was 1.78 µM. It also gave a TGI (MCF7 breast) of 3.4 µM, a GI50 (MDA-MB-231 breast) of 1.41 µM and a TGI (MDA-MB-231 breast) of 2.97 µM. It also gave a GI50 (MDA-MB-435) of 1.77 µM, a TGI (MDA-MB-435) of 3.3 µM and a GI50 (MOLT-4 leukemia) of 1.68 µM. The TGI (MOLT-4 leukemia) was 4.47 µM, the GI50 (NCI-H226 lung) was 1.84 µM and the TGI (NCI-H226 lung) was 3.74 µM. It also gave a GI50 (NCI-H23 lung) of 1.85 µM, a TGI (NCI-H23 lung) of 3.45 µM and a GI50 (NCI-H460 lung) of 1.99 µM. The TGI (NCI-H460 lung) was 3.81 µM, the GI50 (NCI-H522 lung) was 1.78 µM and the TGI (NCI-H522 lung) was 3.48 µM. The GI50 (NCI/ADR-RES ovarian) was 7.54 µM, the TGI (NCI/ADR-RES ovarian) was 26.7 µM and the GI50 (OVCAR-3 ovarian) was 1.97 µM. It also gave a TGI (OVCAR-3 ovarian) of 3.61 µM, a GI50 (OVCAR-4 ovarian) of 2.04 µM and a TGI (OVCAR-4 ovarian) of 4.26 µM. It also gave a GI50 (OVCAR-5 ovarian) of 1.79 µM, a TGI (OVCAR-5 ovarian) of 3.31 µM and a GI50 (OVCAR-8 ovarian) of 2.07 µM. For the same compound, the TGI (OVCAR-8 ovarian) was 4.01 µM, the GI50 (PC-3 prostate) was 1.86 µM and the TGI (PC-3 prostate) was 3.4 µM. For the same compound, the GI50 (RPMI-8226 leukemia) was 2.18 µM, the TGI (RPMI-8226 leukemia) was 4.91 µM and the GI50 (RXF 393 renal) was 1.8 µM. The TGI (RXF 393 renal) was 3.24 µM, the GI50 (SF-268 CNS) was 2.14 µM and the TGI (SF-268 CNS) was 4.11 µM. The GI50 (SF-295 CNS) was 1.78 µM, the TGI (SF-295 CNS) was 3.31 µM and the GI50 (SF-539 CNS) was 1.63 µM. It also gave a TGI (SF-539 CNS) of 3.06 µM, a GI50 (SK-MEL-2 melanoma) of 1.81 µM and a TGI (SK-MEL-2 melanoma) of 3.68 µM. The GI50 (SK-MEL-28 melanoma) was 1.73 µM, the TGI (SK-MEL-28 melanoma) was 3.19 µM and the GI50 (SK-MEL-5 melanoma) was 1.76 µM. The TGI (SK-MEL-5 melanoma) was 3.25 µM, the GI50 (SK-OV-3 ovarian) was 2.13 µM and the TGI (SK-OV-3 ovarian) was 3.95 µM. The GI50 (SN12C renal) was 1.77 µM, the TGI (SN12C renal) was 3.38 µM and the GI50 (SNB-19 CNS) was 1.96 µM. For the same compound, the TGI (SNB-19 CNS) was 3.54 µM, the GI50 (SNB-75 CNS) was 0.714 µM and the TGI (SNB-75 CNS) was 3.53 µM. The GI50 (SR leukemia) was 2.47 µM, the TGI (SR leukemia) was > 100 µM and the GI50 (SW-620 colon) was 1.94 µM. The TGI (SW-620 colon) was 3.65 µM, the GI50 (T-47D breast) was 1.94 µM and the TGI (T-47D breast) was 4.09 µM. For the same compound, the GI50 (TK-10 renal) was 1.97 µM, the TGI (TK-10 renal) was 3.58 µM and the GI50 (U251 CNS) was 1.72 µM. The TGI (U251 CNS) was 3.21 µM, the GI50 (UACC-257 melanoma) was 1.93 µM and the TGI (UACC-257 melanoma) was 3.85 µM. It also gave a GI50 (UACC-62 melanoma) of 1.74 µM, a TGI (UACC-62 melanoma) of 3.27 µM and a GI50 (UO-31 renal) of 2.46 µM. The TGI (UO-31 renal) was 5.9 µM.
